{"source": "paper doi:10.1101/2025.05.02.651913", "about": "(bioRxiv, 2025)"}
{"test_system": "MPXV strain hMPXV/USA/MA001/2022 (Lineage B.1, Clade IIb)", "format": "cell-based, Mpox virus (MPXV)"}
{"molecule": "C=CC(=O)Nc1cc(Nc2nccc(-c3cn(CC(F)(F)F)c4ccccc34)n2)c(OC)cc1N(C)CCN(C)C", "note": "[MC-Befotertinib, Befotertinib]", "Duplicate of Duplicate of Hits: No CPE": 1}
{"molecule": "C=CC(=O)Nc1cccc(Oc2nc(Nc3ccc(N4CCN(C)CC4)cc3)ncc2Cl)c1", "note": "[NKIL-WZ3146, WZ3146]", "Duplicate of Duplicate of Hits: No CPE": 1}
{"molecule": "C=CC(=O)Nc1cccc(Oc2nc(Nc3ccc(N4CCN(C)CC4)cc3OC)ncc2Cl)c1", "note": "[NKIL-WZ4002, WZ4002]", "Duplicate of Duplicate of Hits: No CPE": 1}
{"molecule": "CNS(=O)(=O)Nc1nccc(Cc2c(C)c3ccc(Oc4ncccn4)cc3oc2=O)c1F", "note": "[MC-Avutometinib, Avutometinib]", "Duplicate of Duplicate of Hits: No CPE": 1}
{"molecule": "C=CC(=O)Nc1ccc2ncnc(Nc3cccc(Br)c3)c2c1", "note": "[NKIL-PD168393, PD168393]", "Duplicate of Duplicate of Hits: No CPE": 1}
{"molecule": "C=CC(=O)Nc1cccc(Nc2nc(Nc3ccc(NC4CN(CCF)C4)cc3OC)ncc2C(F)(F)F)c1", "note": "[NKIL-CNX-2006, CNX-2006]", "Duplicate of Duplicate of Hits: No CPE": 1}
{"molecule": "CNc1ncc2cc(-c3cc(NC(=O)NCCC(C)(C)C)c(F)cc3C)c(C)nc2n1", "note": "[MC-LY3009120, LY3009120]", "Duplicate of Duplicate of Hits: No CPE": 1}
{"molecule": "CNC(=O)c1ccccc1Nc1cc(Nc2ccc(N3CCN(CC(=O)N[C@H](C(=O)N4C[C@H](O)C[C@H]4C(=O)N[C@@H](C)c4ccc(-c5scnc5C)cc4)C(C)(C)C)CC3)cc2OC)ncc1C(F)(F)F", "note": "[MC-GSK215, GSK215]", "Duplicate of Duplicate of Hits: No CPE": 1}
{"molecule": "C=CC(=O)Nc1ccc2ncnc(Nc3ccc(OCc4cccc(F)c4)c(Cl)c3)c2c1.Cc1ccc(S(=O)(=O)O)cc1", "note": "[NKIL-AST-1306, Allitinib tosylate]", "Duplicate of Duplicate of Hits: No CPE": 1}
{"molecule": "C=CC(=O)Nc1cccc(Oc2nc(Nc3ccc(N4CCN(C)CC4)c(F)c3)nc3[nH]ccc23)c1.O=C(O)/C=C\\C(=O)O", "note": "[MC-Avitinib (maleate), Avitinib (maleate)]", "Duplicate of Duplicate of Hits: No CPE": 1}
{"molecule": "CN(C)C/C=C/C(=O)Nc1cc2c(Nc3ccc(F)c(Cl)c3)ncnc2cc1O[C@H]1CCOC1.O=C(O)/C=C\\C(=O)O.O=C(O)/C=C\\C(=O)O", "note": "[MC-Afatinib (dimaleate), Afatinib (dimaleate)]", "Duplicate of Duplicate of Hits: No CPE": 1}
{"molecule": "Cc1c(=O)n(C)c(Nc2ccc(I)cc2F)c2c(=O)n(C3CC3)c(=O)n(-c3cccc(N)c3)c12", "note": "[MC-GSK1790627, GSK1790627]", "Duplicate of Duplicate of Hits: No CPE": 1}
{"molecule": "Cc1cc(C(=O)NOCCO)c(Nc2ccc(I)cc2F)n(C)c1=O", "note": "[NKIL-AZD8330, AZD8330]", "Duplicate of Duplicate of Hits: No CPE": 1}
{"molecule": "KIRA-7 [MC-KIRA-7]", "Duplicate of Duplicate of Hits: No CPE": 1}
{"molecule": "C=CC(=O)Nc1cc(Nc2nccc(-c3cn(C)c4ccccc34)n2)c(OC)cc1OCCN(C)C", "note": "[MC-Rezivertinib, Rezivertinib]", "Duplicate of Duplicate of Hits: No CPE": 1}
{"molecule": "CCN1CCN(Cc2ccc(NC(=O)c3ccc(C)c(/C=C/c4cnc5[nH]ccc5c4OC)c3)cc2C(F)(F)F)CC1", "note": "[MC-HG6-64-1, HG6-64-1]", "Duplicate of Duplicate of Hits: No CPE": 1}
{"molecule": "C=CC(=O)Nc1cc(Nc2nccc(-c3cn(C4CC4)c4ccccc34)n2)c(OC)cc1N(C)CCN(C)C.CS(=O)(=O)O", "note": "[MC-Almonertinib (mesylate), Almonertinib (mesylate)]", "Duplicate of Duplicate of Hits: No CPE": 1}
{"molecule": "COc1ccc(-c2cc3c(C)nc(N)nc3n([C@H]3CC[C@H](OCCO)CC3)c2=O)cn1", "note": "[NKIL-PF-04691502, PF-04691502]", "Duplicate of Duplicate of Hits: No CPE": 1}
{"molecule": "COc1cccc(Nc2ncnn3ccc(CN4CC[C@@H](N)[C@H](O)C4)c23)c1", "note": "[MC-BMS-690514, BMS-690514]", "Duplicate of Duplicate of Hits: No CPE": 1}
{"molecule": "ZX-29 [MC-ZX-29]", "Duplicate of Duplicate of Hits: No CPE": 1}
{"molecule": "Gilmelisib [MC-Gilmelisib]", "Duplicate of Duplicate of Hits: No CPE": 1}
{"molecule": "CCOc1cc2ncc(C#N)c(Nc3ccc(OCc4cccc(F)c4)c(Cl)c3)c2cc1NC(=O)/C=C/CN(C)C", "note": "[MC-HKI-357, HKI-357]", "Duplicate of Duplicate of Hits: No CPE": 1}
{"molecule": "C=CC(=O)Nc1cc(Nc2nccc(Nc3cc(Cl)c(F)cc3C(C)(C)O)n2)c(OC)cc1N1CC[C@@H](N(C)C)C1", "note": "[MC-Sunvozertinib, Sunvozertinib]", "Duplicate of Duplicate of Hits: No CPE": 1}
{"molecule": "COc1cc2ncnc(Nc3cccc(Br)c3)c2cc1OC", "note": "[MC-PD153035, PD153035]", "Duplicate of Duplicate of Hits: No CPE": 1}
{"molecule": "COc1cc2c(Nc3ccc(Cl)c(Cl)c3F)ncnc2cc1OC[C@@H]1C[C@@H]2CN(C)C[C@@H]2C1", "note": "[MC-Tesevatinib, Tesevatinib]", "Duplicate of Duplicate of Hits: No CPE": 1}
{"molecule": "Cc1nc2c(-c3cnc(N)nc3)nc(N3CCOCC3)nc2n1C(C)C", "note": "[NKIL-VS-5584 (SB2343), VS-5584]", "Duplicate of Duplicate of Hits: No CPE": 1}
{"molecule": "COCc1c(-c2ccc(NC(=O)Nc3cc(C(F)(F)F)ccc3F)c(F)c2)c2c(N)ncnn2c1CN1CCOCC1", "note": "[MC-EOC317, EOC317]", "Duplicate of Duplicate of Hits: No CPE": 1}
{"molecule": "Cn1c(=O)c(F)c(Nc2ccc(I)cc2F)c2c(=O)n(C[C@@H](O)CO)cnc21", "note": "[NKIL-TAK-733, TAK-733]", "Duplicate of Duplicate of Hits: No CPE": 1}
{"molecule": "CN(C)C/C=C/C(=O)Nc1cc2c(Nc3ccc(F)c(Cl)c3)ncnc2cc1OC(F)F", "note": "[MC-Mefatinib (free base), Mefatinib (free base)]", "Duplicate of Duplicate of Hits: No CPE": 1}
{"molecule": "COc1cc2ncnc(Nc3cccc(Br)c3)c2cc1OC.Cl", "note": "[LOPAC-PD153035 hydrochloride, PD153035 hydrochloride]", "Duplicate of Duplicate of Hits: No CPE": 1}
{"molecule": "C=CC(=O)Nc1cccc(Oc2nc(Nc3ccc(N4CCN(C)CC4)cc3)nc3ccoc23)c1", "note": "[MC-Poseltinib, Poseltinib]", "Duplicate of Duplicate of Hits: No CPE": 1}
{"molecule": "C=CC(=O)Nc1cccc(Sc2nc(Nc3ccc(N4CCN(C)CC4)cc3)ncc2Cl)c1", "note": "[NKIL-WZ8040, WZ8040]", "Duplicate of Duplicate of Hits: No CPE": 1}
{"molecule": "CN1CCN(c2ccc(Nc3ncc4nc(Nc5ccccc5)n([C@@H]5CCN(S(=O)(=O)C6CC6)C5)c4n3)cc2)CC1", "note": "[MC-EGFR-IN-11, EGFR-IN-11]", "Duplicate of Duplicate of Hits: No CPE": 1}
{"molecule": "O=C(NOCC(O)CO)c1cc(Br)c(F)c(F)c1Nc1ccc(I)cc1F", "note": "(stereo not drawn) [NKIL-PD318088, PD318088]", "Duplicate of Duplicate of Hits: No CPE": 1}
{"molecule": "Cc1c(CN2CCN(S(C)(=O)=O)CC2)sc2c(N3CCOCC3)nc(-c3cnc(N)nc3)nc12", "note": "[MC-GNE-477, GNE-477]", "Duplicate of Duplicate of Hits: No CPE": 1}
{"molecule": "C=CC(=O)Nc1cc(Nc2nccc(-c3cn(C)c4ccccc34)n2)c(OC)cc1N(C)CCN(C)C", "note": "[NKIL-AZD9291, Osimertinib]", "Duplicate of Duplicate of Hits: No CPE": 1}
{"molecule": "CS[C@@]1(C(=O)Nc2ccc3[nH]nc(-c4ccc(OC(C)C)nc4)c3c2)CCN(CC(=O)N2CC=C(c3ccc(-c4ncn(C)n4)cc3)CC2)C1", "note": "[MC-MK-8353, MK-8353]", "Duplicate of Duplicate of Hits: No CPE": 1}
{"molecule": "JAK-IN-23 [MC-JAK-IN-23]", "Duplicate of Duplicate of Hits: No CPE": 1}
{"molecule": "COc1cc2ncnc(Nc3ccc(F)c(Cl)c3)c2cc1OCCCN1C[C@@H]2OCCO[C@@H]2C1.CS(=O)(=O)O.CS(=O)(=O)O.O", "note": "[MC-Larotinib (mesylate hydrate), Larotinib (mesylate hydrate)]", "Duplicate of Duplicate of Hits: No CPE": 1}
{"molecule": "O=C(NC[C@H](O)CO)c1ccncc1Nc1ccc(I)cc1F", "note": "[NKIL-Pimasertib (AS-703026), Pimasertib]", "Duplicate of Duplicate of Hits: No CPE": 1}
{"molecule": "FGFR1/DDR2 inhibitor 1 [MC-FGFR1/DDR2 inhibitor 1]", "Duplicate of Duplicate of Hits: No CPE": 1}
{"molecule": "CC#CC(=O)Nc1ccc2ncnc(Nc3cccc(Br)c3)c2c1", "note": "[MC-CL-387785, CL-387785]", "Duplicate of Duplicate of Hits: No CPE": 1}
{"molecule": "C=CC(=O)Nc1cc2c(Nc3ccc(F)c(Cl)c3)ncnc2cc1OCCCN1CCOCC1", "note": "[MC-Canertinib, Canertinib]", "Duplicate of Duplicate of Hits: No CPE": 1}
{"molecule": "COc1cc2ncnc(Nc3cccc(Cl)c3)c2cc1OC", "note": "[LOPAC-Tyrphostin AG 1478, Tyrphostin AG 1478]", "Duplicate of Duplicate of Hits: No CPE": 1}
{"molecule": "C#Cc1cccc(Nc2ncnc3cc(OCCOC)c(OCCOC)cc23)c1", "note": "[Erlotinib]", "Duplicate of Duplicate of Hits: No CPE": 1}
{"molecule": "CCOc1cc2ncc(C#N)c(Nc3ccc(OCc4ccccn4)c(Cl)c3)c2cc1NC(=O)/C=C/CN(C)C", "note": "[MC-Neratinib, Neratinib]", "Duplicate of Duplicate of Hits: No CPE": 1}
{"molecule": "Cc1cnc(Nc2ccc(F)cc2Cl)nc1-c1c[nH]c(C(=O)N[C@H](CO)c2cccc(Cl)c2)c1", "note": "[NKIL-VX-11e, VX-11e]", "Duplicate of Duplicate of Hits: No CPE": 1}
{"molecule": "C#Cc1cccc(Nc2ncnc3cc(OCCOC)c(OCCO)cc23)c1.Cl", "note": "[MC-Desmethyl Erlotinib, Desmethyl Erlotinib]", "Duplicate of Duplicate of Hits: No CPE": 1}
{"molecule": "Cc1c[nH]c2nc(Nc3ccc(N4CCN(C)CC4)c(F)c3)nc(-c3cccc(CC#N)c3)c12", "note": "[NKIL-SGI-7079, SGI-7079]", "Duplicate of Duplicate of Hits: No CPE": 1}
{"molecule": "XMU-MP-3 [MC-XMU-MP-3]", "Duplicate of Duplicate of Hits: No CPE": 1}
{"molecule": "COc1c(F)cccc1Nc1c(-c2ccncc2OCC(C)(C)OC)[nH]c2c1C(=O)NCC2", "note": "[MC-BAY 2476568, BAY 2476568]", "Duplicate of Duplicate of Hits: No CPE": 1}
{"molecule": "Mutant EGFR inhibitor [MC-Mutant EGFR inhibitor]", "Duplicate of Duplicate of Hits: No CPE": 1}
{"molecule": "C=CC(=O)Nc1cccc(Oc2nc(Nc3ccc(N4CCN(C)CC4)c(F)c3)nc3[nH]ccc23)c1", "note": "[MC-Avitinib, Avitinib]", "Duplicate of Duplicate of Hits: No CPE": 1}
{"molecule": "O=C(NOC[C@H](O)CO)c1ccc(F)c(F)c1Nc1ccc(I)cc1F", "note": "[LOPAC-PD 0325901, Mirdametinib]", "Duplicate of Duplicate of Hits: No CPE": 1}
{"molecule": "O=C1Nc2ccc3ncsc3c2/C1=C/c1cnc[nH]1", "note": "[MC-PKR-IN-C16, PKR-IN-C16]", "Duplicate of Duplicate of Hits: No CPE": 1}
{"molecule": "C=CC(=O)Nc1cc2c(Nc3ccc(F)c(Cl)c3)ncnc2cc1OC", "note": "[MC-PF-6274484, PF-6274484]", "Duplicate of Duplicate of Hits: No CPE": 1}
{"molecule": "O=C(c1ccc(F)c(F)c1Nc1ccc(I)cc1F)N1CC(O)([C@@H]2CCCCN2)C1", "note": "(racemic) [MC-Cobimetinib (racemate), Cobimetinib (racemate)]", "Duplicate of Duplicate of Hits: No CPE": 1}
